Structures can show the parent of a compound that is named as a salt.
Assays:
[1] = target: μ-receptor (Homo sapiens (Human), UniProt P35372); assay: Receptor binding, competitive displacement of [3H]DAMGO; settings: 0.25 nM [3H]DAMGO, CHO cell membrane protein, 60 min at 25° C.
Procedure: The Ki (binding affinity) for μ-receptor was determined with a previously described method using a competitive displacement assay (Neumeyer et al., J. Med. Chem., v. 46, p. 5162-5170, 2003). Membrane protein from CHO (Chinese Hamster Ovarian) cells that stably expressed one type of the cloned human opioid receptor were incubated with 12 different concentrations of the compound in the presence of 0.25 nM [3H]DAMGO, 0.2 nM [3H]naltrindole or 1 nM [3H]U69,593 in a final volume of 1 mL of 50 mM Tris-HCl, pH 7.5 at 25° C. Incubation times of 60 min were used for [3H]DAMGO and [3H]U69,593. Because of a slower association of [3H]naltrindole with the receptor, a 3 h incubation was used with this radioligand. Samples incubated with [3H]naltrindole also contained 10 mM MgCl2 and 0.5 mM phenylmethylsulfonyl fluoride. Nonspecific binding was measured by inclusion of 10 μM naloxone. The binding was terminated by filtering the samples through Schleicher & Schuell No. 32 glass fiber filters using a Brandel 48-well cell harvester. The filters were subsequently washed three times with 3 mL of cold 50 mM Tris-HCl, pH 7.5, and were counted in 2 mL Ecoscint A scintillation fluid. For [3H]naltrindole and [3H]U69,593 binding, the filters were soaked in 0.1% polyethylenimine for at least 60 min before use. IC50 values will be calculated by least squares fit to a logarithm-probit analysis. Ki values of unlabelled compounds were calculated from the equation Ki=(IC50)/1+S where S=(concentration of radioligand)/(Kd of radioligand) (Cheng and Prusoff, Biochemical Pharmacology, v. 22, p. 3099-3108, 1973).

[2] = target: human μ opioid receptor (Homo sapiens (Human), UniProt P35372); assay: Functional activity ([35S]GTPγS binding); format: biochemical; settings: [35S]GTPγS 0.080 nM, CHO cell membranes, 60 min at 30° C., filtration
Procedure: The [^35S]GTPγS assay measures the functional properties of a compound by quantifying the level of G-protein activation following agonist binding in studies using stably transfected cells, and is considered to be a measure of the efficacy of a compound. Membranes from CHO (Chinese Hamster Ovary) cells that stably expressed one type of the cloned human opioid receptor human were used in the experiments. In a final volume of 0.5 mL, 12 different concentrations of each test compound were incubated with 7.5 μg of CHO cell membranes that stably expressed the human p opioid receptor. The assay buffer consisted of 50 mM Tris-HCl, pH 7.4, 3 mM MgCl2, 0.2 mM EGTA, 3 μM GDP, and 100 mM NaCl. The final concentration of [35S]GTPγS was 0.080 nM. Nonspecific binding was measured by inclusion of 10 μM GTPγS. Binding was initiated by the addition of the membranes. After an incubation of 60 min at 30° C., the samples were filtered through Schleicher & Schuell No. 32 glass fiber filters. The filters were washed three times with cold 50 mM Tris-HCl, pH 7.5, and were counted in 2 mL of Ecoscint scintillation fluid.

Row | SMILES | Ki [1] [nM] | EC50 [2] [nM]
1 | COC1(c2ccnc(C(N)=O)c2)C2CCCC1CN(CCN1CCOC1=O)C2 [Compound 80, 4-((1R,5S,9r)-9-methoxy-3-(2-(2-oxooxazolidin-3-yl)ethyl)-3-azabicyclo[3.3.1]nonan-9-yl)picolinamide hydrochloride] | > 5 | –
2 | COC1(c2cccc(C(N)=O)c2)C2CCCC1CN(C[C@@H]1[C@@H]3COC[C@@H]31)C2 (stereo partly drawn) [Compound 175] | < 1 | 10 to 75
3 | COC1(c2ccnc(C(N)=O)c2)C2CCCC1CN([C@H]1CC[C@H]1c1ccccc1)C2 (stereo partly drawn) [Compound 116, 4-((1R,5S,9s)-9-methoxy-3-((1S,2S)-2-phenylcyclobutyl)-3-azabicyclo[3.3.1]nonan-9-yl)picolinamide (S)-2-hydroxysuccinate] | > 5 | –
4 | COC1(c2cccc(C(N)=O)c2)C2CCCC1CN(CC1COC1)C2 [Compound 51, 3-((1R,5S,9r)-9-methoxy-3-(oxetan-3-ylmethyl)-3-azabicyclo[3.3.1]nonan-9-yl)benzamide (S)-2-hydroxysuccinate] | < 1 | 10 to 75
5 | COC1(c2ccnc(C(N)=O)c2)C2CCCC1CN([C@@H]1CC[C@H]1c1ccccc1)C2 (stereo partly drawn) [Compound 109, 4-((1R,5S,9R)-9-methoxy-3-((1R,2S)-2-phenylcyclobutyl)-3-azabicyclo[3.3.1]nonan-9-yl)picolinamide hydrochloride] | < 1 | < 10
6 | COC1(c2cccc(C(N)=O)c2)C2CCCC1CNC2 [Compound 35, 3-((1R,5S,9r)-9-methoxy-3-azabicyclo[3.3.1]nonan-9-yl)benzamide hydrochloride] | < 1 | 10 to 75
7 | COC1(c2cccc(C(N)=O)c2)C2CCCC1CN(CC1(O)Cc3ccccc3C1)C2 [Compound 58, 3-((1R,5S,9r)-3-((2-hydroxy-2,3-dihydro-1H-inden-2-yl)methyl)-9-methoxy-3-azabicyclo[3.3.1]nonan-9-yl)benzamide hydrochloride] | < 1 | < 10
8 | COC1(c2ccnc(C(N)=O)c2)C2CCCC1CN([C@H]1CC[C@@H]1C)C2 (stereo in doubt) [Compound 147, 4-((1R,5S,9R)-9-methoxy-3-((1R,2R)-2-methylcyclobutyl)-3-azabicyclo[3.3.1]nonan-9-yl)picolinamide hydrochloride] | 1 to 5 | 10 to 75
9 | COC1(c2cc(C(N)=O)ccn2)C2CCCC1CN(C)C2 [Compound 44, 2-((1R,5S,9r)-9-methoxy-3-methyl-3-azabicyclo[3.3.1]nonan-9-yl)isonicotinamide hydrochloride] | 1 to 5 | –
10 | COC1(c2cccc(C(N)=O)c2)C2CCCC1CN(CC1CCC1)C2 [Compound 26, 3-((1R,5S,9r)-3-(cyclobutylmethyl)-9-methoxy-3-azabicyclo[3.3.1]nonan-9-yl)benzamide hydrochloride] | < 1 | < 10
11 | COC1(c2ccnc(C(N)=O)c2)C2CCCC1CN(C1CC3(CCOCC3)C1)C2 [Compound 13, 4-((1R,5S,9r)-9-methoxy-3-(7-oxaspiro[3.5]nonan-2-yl)-3-azabicyclo[3.3.1]nonan-9-yl)picolinamide hydrochloride] | < 1 | < 10
12 | COC1(c2ccnc(C(N)=O)c2)C2CCCC1CN([C@H]1C[C@@H](F)C1)C2 (stereo partly drawn) [Compound 2, 4-((1R,5S,9R)-3-((1s,3S)-3-fluorocyclobutyl)-9-methoxy-3-azabicyclo[3.3.1]nonan-9-yl)picolinamide hydrochloride] | < 1 | 10 to 75
13 | COC1(c2cccc(C(N)=O)c2)C2CCCC1CN(Cc1n[nH]c3ccccc13)C2 [Compound 154, 3-((1R,5S,9r)-3-((1H-indazol-3-yl)methyl)-9-methoxy-3-azabicyclo[3.3.1]nonan-9-yl)benzamide hydrochloride] | < 1 | < 10
14 | COC1(c2cncc(C(N)=O)c2)C2CCCC1CN(CC1CC1)C2 [Compound 28, 5-((1R,5S,9r)-3-(cyclopropylmethyl)-9-methoxy-3-azabicyclo[3.3.1]nonan-9-yl)nicotinamide hydrochloride] | > 5 | –
15 | COC1(c2ccnc(C(N)=O)c2)C2CCCC1CN(CC(C)(C)C)C2 [Compound 105, 4-((1R,5S,9r)-9-methoxy-3-neopentyl-3-azabicyclo[3.3.1]nonan-9-yl)picolinamide hydrochloride] | > 5 | –
16 | COC1(c2ccnc(C(N)=O)c2)C2CCCC1CN(Cc1cnnn1C)C2 [Compound 125, 4-((1R,5S,9r)-9-methoxy-3-((1-methyl-1H-1,2,3-triazol-5-yl)methyl)-3-azabicyclo[3.3.1]nonan-9-yl)picolinamide hydrochloride] | > 5 | –
17 | COC1(c2ccnc(C(N)=O)c2)C2CCCC1CN([C@@H]1CC[C@@H]1c1ccccc1)C2 (stereo partly drawn) [Compound 110, 4-((1R,5S,9R)-9-methoxy-3-((1R,2R)-2-phenylcyclobutyl)-3-azabicyclo[3.3.1]nonan-9-yl)picolinamide hydrochloride] | > 5 | –
18 | COC1(c2ccc(F)c(C(N)=O)c2)C2CCCC1CN(C)C2 [Compound 41, 2-fluoro-5-((1R,5S,9r)-9-methoxy-3-methyl-3-azabicyclo[3.3.1]nonan-9-yl)benzamide hydrochloride] | > 5 | –
19 | COC1(c2ccnc(C(N)=O)c2)C2CCCC1CN(CCS(C)(=O)=O)C2 [Compound 8, 4-((1R,5S,9r)-9-methoxy-3-(2-(methylsufonyl)ethyl)-3-azabicyclo[3.3.1]nonan-9-yl)picolinamide hydrochloride] | > 5 | –
20 | COC1(c2ccnc(C(N)=O)c2)C2CCCC1CN(Cc1cc3ccccc3[nH]1)C2 [Compound 119, 4-((1R,5S,9r)-3-((1H-indol-2-yl)methyl)-9-methoxy-3-azabicyclo[3.3.1]nonan-9-yl)picolinamide (S)-2-hydroxysuccinate] | – | < 10
21 | COC1(c2ccnc(C(N)=O)c2)C2CCCC1CN(Cc1cccc(=O)[nH]1)C2 [Compound 120, 4-((1R,5S,9r)-34(6-hydroxypyridin-2-yl)methyl)-9-methoxy-3-azabicyclo[3.3.1]nonan-9-yl)picolinamide hydrochloride] | > 5 | –
22 | COC1(c2cc(O)cc(C(N)=O)c2)C2CCCC1CN(C)C2 [Compound 52, 3-hydroxy-5-((1R,5S,9r)-9-methoxy-3-methyl-3-azabicyclo[3.3.1]nonan-9-yl)benzamide hydrochloride] | > 5 | –
23 | COC1(c2cc(C(N)=O)cs2)C2CCCC1CN(CC1CC1)C2 [Compound 59, 5-((1R,5S,9r)-3-(cyclopropylmethyl)-9-methoxy-3-azabicyclo[3.3.1]nonan-9-yl)thiophene-3-carboxamide hydrochloride] | 1 to 5 | –
24 | COC1(c2cccc(C(N)=O)c2)C2CCCC1CN(CC(F)(F)F)C2 [Compound 32, 3-((1R,5S,9r)-9-methoxy-3-(2,2,2-trifluoroethyl)-3-azabicyclo[3.3.1]nonan-9-yl)benzamide hydrochloride] | > 5 | –
25 | COC1(c2ccc(C(N)=O)cc2)C2CCCC1CN(CC1CC1)C2 [Compound 31, 4-((1R,5S,9r)-3-(cyclopropylmethyl)-9-methoxy-3-azabicyclo[3.3.1]nonan-9-yl)benzamide hydrochloride] | > 5 | –
26 | COC1(c2cccc(C(N)=O)n2)C2CCCC1CN(C)C2 [Compound 33, 6-((1R,5S,9r)-9-methoxy-3-methyl-3-azabicyclo[3.3.1]nonan-9-yl)picolinamide hydrochloride] | > 5 | –
27 | COC1(c2ccnc(C(N)=O)c2)C2CCCC1CN(C1CN(C(C)=O)C1)C2 [Compound 84, 4-((1R,5S,9r)-3-(1-acetylazetidin-3-yl)-9-methoxy-3-azabicyclo[3.3.1]nonan-9-yl)picolinamide hydrochloride] | > 5 | –
28 | COC1(c2cccc(C(N)=O)c2)C2CCCC1CN(C(C)C)C2 [Compound 25, 3-((1R,5S,9r)-3-isopropyl-9-methoxy-3-azabicyclo[3.3.1]nonan-9-yl)benzamide hydrochloride] | < 1 | –
29 | COC1(c2ccnc(C(N)=O)c2)C2CCCC1CN(CC1(F)CCOCC1)C2 [Compound 15, 4-((1R,5S,9r)-34(4-fluorotetrahydro-2H-pyran-4-yl)methyl)-9-methoxy-3-azabicyclo[3.3.1]nonan-9-yl)picolinamide hydrochloride] | > 5 | –

Reference: patent US10604489B2, “Compounds for the treatment of pain” (priority 2018, dated 2020)
